Data published in paper PMC4325472, “An Expedient Synthesis, Acetylcholinesterase Inhibitory Activity, and Molecular Modeling Study of Highly Functionalized Hexahydro-1,6-naphthyridines” (BioMed Research International, 2015).

biological target: T1, acetylcholinesterase enzyme from Electrophoruselectricus (AChE enzyme from electric eel) (Electrophorus electricus, UniProt O42275); assay: biochemical; conditions: not given
T1 construct: purchased Sigma
Procedure: Cholinesterase inhibitory activity of the synthesized compounds was evaluated using the Ellman's microplate assay. For acetylcholinesterase (AChE) inhibitory assay, 140 μL of 0.1 M sodium phosphate buffer (pH 8) was first added to a 96-well microplate followed by 20 μL of test samples and 20 μL of 0.09 units/mL acetylcholinesterase enzyme from Electrophoruselectricus (Sigma). After 15 minutes of incubation at 25°C, 10 μL of 10 mM 5,5′-dithiobis-2-nitrobenzoic acid (DTNB) was added into each well followed by 10 μL of acetylthiocholine iodide (14 mM). At 30 minutes after the initiation of enzymatic reaction, absorbance of the colored end-product was measured using BioTek Power Wave X 340 Microplate Spectrophotometer at 412 nm.
Galantamine was used as positive control. Test samples and galantamine were prepared in DMSO at an initial concentration of 1 mg/mL (1000 ppm). The concentration of DMSO in final reaction mixture was 1%.
The initial screening was carried out at 10 μg/mL of test samples in 1% DMSO and each test was conducted in triplicate. Absorbencies of the test samples were corrected by subtracting the absorbance of their respective blank. Percentage enzyme inhibition is calculated using the following formula: (1) Percentage of inhibition =[…]/Absorbance of control×100. Subsequently, the determination of IC50 was carried out using a set of five concentrations.
All newly synthesized 1,6-naphthyridines were evaluated in vitro for their inhibitory potential against AChE enzyme from electric eel using colorimetric Ellman's method (Table 1).

T1 sequence (O42275 24-633): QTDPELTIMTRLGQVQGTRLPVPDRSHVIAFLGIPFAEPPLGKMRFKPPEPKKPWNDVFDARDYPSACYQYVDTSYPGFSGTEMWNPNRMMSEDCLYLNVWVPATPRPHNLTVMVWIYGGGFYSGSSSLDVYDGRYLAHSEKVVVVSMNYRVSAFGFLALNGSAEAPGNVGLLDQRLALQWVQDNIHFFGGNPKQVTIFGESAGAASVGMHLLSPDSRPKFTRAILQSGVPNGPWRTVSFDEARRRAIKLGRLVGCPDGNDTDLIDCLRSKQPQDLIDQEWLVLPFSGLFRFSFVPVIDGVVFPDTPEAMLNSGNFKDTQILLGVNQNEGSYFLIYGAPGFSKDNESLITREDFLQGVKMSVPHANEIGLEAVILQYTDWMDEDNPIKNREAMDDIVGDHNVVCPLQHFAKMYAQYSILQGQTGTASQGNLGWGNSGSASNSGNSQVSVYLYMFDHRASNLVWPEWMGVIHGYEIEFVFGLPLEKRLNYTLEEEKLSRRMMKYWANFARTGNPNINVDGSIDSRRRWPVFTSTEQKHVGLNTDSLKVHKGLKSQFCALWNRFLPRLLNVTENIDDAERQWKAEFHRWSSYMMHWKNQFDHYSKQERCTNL

Row | Structure (SMILES) | IC50
1 | N#Cc1c(-c2cccc([N+](=O)[O-])c2)c2c([nH]c1=O)/C(=C/c1cccc([N+](=O)[O-])c1)CNC2 [4g, (E)-8-(3-Nitrobenzylidene)-4-(3-nitrophenyl)-2-oxo-1,2,5,6,7,8-hexahydro-1,6-naphthyridine-3-carbonitrile] | 16.86 ± 0.02 µM

same assay, conditions: Ellman's method, AChE from electric eel, triplicate, five concentrations; read-out: AChE inhibition (IC50 ± SD)

Row | Structure (SMILES) | IC50
2 | N#Cc1c(-c2ccccc2)c2c([nH]c1=O)/C(=C/c1ccccc1)CNC2 [4a, (E)-8-Benzylidene-2-oxo-4-phenyl-1,2,5,6,7,8-hexahydro-1,6-naphthyridine-3-carbonitrile] | 11.18 ± 0.02 µM
3 | Cc1ccccc1/C=C1\CNCc2c1[nH]c(=O)c(C#N)c2-c1ccccc1C [4b, (E)-8-(2-Methylbenzylidene)-2-oxo-4-(o-tolyl)-1,2,5,6,7,8-hexahydro-1,6-naphthyridine-3-carbonitrile] | 7.2 ± 0.02 µM
4 | N#Cc1c(-c2ccccc2Cl)c2c([nH]c1=O)/C(=C/c1ccccc1Cl)CNC2 [4c, (E)-8-(2-Chlorobenzylidene)-4-(2-chlorophenyl)-2-oxo-1,2,5,6,7,8-hexahydro-1,6-naphthyridine-3-carbonitrile] | 15.21 ± 0.1 µM
5 | N#Cc1c(-c2ccccc2Br)c2c([nH]c1=O)/C(=C/c1ccccc1Br)CNC2 [4d, (E)-8-(2-Bromobenzylidene)-4-(2-bromophenyl)-2-oxo-1,2,5,6,7,8-hexahydro-1,6-naphthyridine-3-carbonitrile] | 18.16 ± 0.02 µM
6 | COc1ccccc1/C=C1\CNCc2c1[nH]c(=O)c(C#N)c2-c1ccccc1OC [4e, (E)-8-(2-Methoxybenzylidene)-4-(2-methoxyphenyl)-2-oxo-1,2,5,6,7,8-hexahydro-1,6-naphthyridine-3-carbonitrile] | 2.12 ± 0.02 µM
7 | N#Cc1c(-c2ccc(Cl)cc2Cl)c2c([nH]c1=O)/C(=C/c1ccc(Cl)cc1Cl)CNC2 [4f, (E)-8-(2,4-Dichlorobenzylidene)-4-(2,4-dichlorophenyl)-2-oxo-1,2,5,6,7,8-hexahydro-1,6-naphthyridine-3-carbonitrile] | 24.72 ± 0.01 µM
8 | Cc1ccc(/C=C2\CNCc3c2[nH]c(=O)c(C#N)c3-c2ccc(C)cc2)cc1 [4h, (E)-8-(4-Methylbenzylidene)-2-oxo-4-(p-tolyl)-1,2,5,6,7,8-hexahydro-1,6-naphthyridine-3-carbonitrile] | 7.16 ± 0.02 µM
9 | N#Cc1c(-c2ccc(Cl)cc2)c2c([nH]c1=O)/C(=C/c1ccc(Cl)cc1)CNC2 [4i, (E)-8-(4-Chlorobenzylidene)-4-(4-chlorophenyl)-2-oxo-1,2,5,6,7,8-hexahydro-1,6-naphthyridine-3-carbonitrile] | 3.86 ± 0.02 µM
10 | N#Cc1c(-c2ccc(F)cc2)c2c([nH]c1=O)/C(=C/c1ccc(F)cc1)CNC2 [4j, (E)-8-(4-Fluorobenzylidene)-4-(4-fluorophenyl)-2-oxo-1,2,5,6,7,8-hexahydro-1,6-naphthyridine-3-carbonitrile] | 14.16 ± 0.02 µM
11 | N#Cc1c(-c2cccc3ccccc23)c2c([nH]c1=O)/C(=C/c1cccc3ccccc13)CNC2 [4k, (E)-4-(Naphthalen-1-yl)-8-(naphthalen-1-ylmethylene)-2-oxo-1,2,5,6,7,8-hexahydro-1,6-naphthyridine-3-carbonitrile] | 6.86 ± 0.02 µM
